Where two headings read alike, the source gives them in different places.
Experiments:
[1] = test system: CAL-62 anaplastic thyroid cancer cell line; assay type: cell-based
[2] = test system: pERK1/2; test: Western blot, phosphorylated ERK1/2 in CAL62 cells; assay type: cell-based; conditions: MEK inhibitor
[3] = target: GST-bound ERR alpha LBD (Homo sapiens (Human), UniProt P11474); conditions: TR-FRET, PGC1a coactivator; read-out: Binding Assay, IC50 ERRα
Method: (§2) The arylethene derivative of the present invention was sequentially added to a 384 well plate from a concentration of 10 μM to a final concentration of two-fold dilution. […] After all reagents were added, a reaction was carried out with gentle shaking at 20° C. for 1 hour, and after the reaction, a binding activity was measured by a TR-FRET method.

[4] = target: ERRβ (Homo sapiens, UniProt O95718); conditions: TR-FRET, PGC1a coactivator; read-out: Binding Assay, IC50 ERRβ
ERRβ, sequence (O95718 whole entry, looked up, the tested form may be a part): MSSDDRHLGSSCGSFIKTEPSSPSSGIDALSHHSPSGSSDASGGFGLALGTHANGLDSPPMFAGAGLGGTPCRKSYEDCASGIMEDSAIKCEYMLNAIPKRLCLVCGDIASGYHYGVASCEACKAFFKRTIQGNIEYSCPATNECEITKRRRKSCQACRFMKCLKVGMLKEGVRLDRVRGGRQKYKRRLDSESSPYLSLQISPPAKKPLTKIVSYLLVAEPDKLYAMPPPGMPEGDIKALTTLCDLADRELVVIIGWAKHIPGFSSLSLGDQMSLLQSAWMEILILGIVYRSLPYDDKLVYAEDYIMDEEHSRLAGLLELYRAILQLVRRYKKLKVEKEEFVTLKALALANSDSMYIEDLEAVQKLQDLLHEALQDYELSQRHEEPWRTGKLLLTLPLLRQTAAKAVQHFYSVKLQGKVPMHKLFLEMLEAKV
Method: as §2

[5] = target: GST-bound ER alpha ligand-binding domain (LBD) (Homo sapiens (Human), UniProt P03372); test: biochemical; conditions: TR-FRET, beta-estradiol 4 nM as agonist; read-out: Binding Assay, IC50 ERα
GST-bound ER alpha ligand-binding domain (LBD), sequence (P03372 whole entry, looked up, the tested form may be a part): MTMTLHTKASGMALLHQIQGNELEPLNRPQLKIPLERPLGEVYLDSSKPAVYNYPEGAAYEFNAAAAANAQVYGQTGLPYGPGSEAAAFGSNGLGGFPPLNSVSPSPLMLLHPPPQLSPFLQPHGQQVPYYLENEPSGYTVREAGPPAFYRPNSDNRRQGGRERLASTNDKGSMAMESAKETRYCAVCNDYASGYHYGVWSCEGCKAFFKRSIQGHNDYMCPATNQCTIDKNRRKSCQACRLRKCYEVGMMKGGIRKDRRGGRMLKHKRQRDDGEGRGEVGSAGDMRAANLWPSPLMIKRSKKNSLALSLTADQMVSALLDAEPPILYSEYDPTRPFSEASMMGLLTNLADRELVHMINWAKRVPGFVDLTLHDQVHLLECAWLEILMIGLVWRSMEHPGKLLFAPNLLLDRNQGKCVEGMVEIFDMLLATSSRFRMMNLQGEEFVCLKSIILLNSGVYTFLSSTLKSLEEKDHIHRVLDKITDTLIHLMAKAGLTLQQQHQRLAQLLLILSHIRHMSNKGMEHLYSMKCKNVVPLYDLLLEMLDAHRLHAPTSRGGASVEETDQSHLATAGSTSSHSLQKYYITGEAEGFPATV
Method: as §2

[6] = test system: ERRγ; assay type: cell-based; conditions: for Functional Assay at 10 μM (% of control), Cpds: 24 hours, AD293
[7] = target: CYP1A2 (Homo sapiens (Human), UniProt P05177); test: Cytochrome P450 activity inhibition, CYP1A2; assay type: in vitro ADME; conditions: 10 μM, human liver microsomes, Phenacetin substrate
CYP1A2, sequence (P05177 whole entry): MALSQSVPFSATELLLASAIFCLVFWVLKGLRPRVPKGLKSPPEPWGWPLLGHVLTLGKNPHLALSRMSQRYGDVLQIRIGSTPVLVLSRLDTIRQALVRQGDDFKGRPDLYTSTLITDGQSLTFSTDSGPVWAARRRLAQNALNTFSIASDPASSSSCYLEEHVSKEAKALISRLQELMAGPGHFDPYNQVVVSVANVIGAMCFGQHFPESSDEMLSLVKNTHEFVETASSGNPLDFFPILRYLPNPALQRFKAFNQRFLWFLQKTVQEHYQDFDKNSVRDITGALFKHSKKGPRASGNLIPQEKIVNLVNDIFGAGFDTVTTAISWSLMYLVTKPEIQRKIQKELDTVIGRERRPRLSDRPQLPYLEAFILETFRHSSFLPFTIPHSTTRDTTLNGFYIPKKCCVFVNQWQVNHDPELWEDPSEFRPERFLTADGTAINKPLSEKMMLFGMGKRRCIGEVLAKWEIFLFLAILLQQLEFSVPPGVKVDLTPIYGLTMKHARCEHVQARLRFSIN
From the text: (§1) 1) Cytochrome P450 (CYP450) Activity Inhibition Evaluation

[8] = target: CYP2C9 (Homo sapiens (Human), UniProt P11712); test: Cytochrome P450 activity inhibition, CYP2C9; assay type: in vitro ADME; conditions: 10 μM, human liver microsomes, Diclofenac substrate
CYP2C9, sequence (P11712 whole entry): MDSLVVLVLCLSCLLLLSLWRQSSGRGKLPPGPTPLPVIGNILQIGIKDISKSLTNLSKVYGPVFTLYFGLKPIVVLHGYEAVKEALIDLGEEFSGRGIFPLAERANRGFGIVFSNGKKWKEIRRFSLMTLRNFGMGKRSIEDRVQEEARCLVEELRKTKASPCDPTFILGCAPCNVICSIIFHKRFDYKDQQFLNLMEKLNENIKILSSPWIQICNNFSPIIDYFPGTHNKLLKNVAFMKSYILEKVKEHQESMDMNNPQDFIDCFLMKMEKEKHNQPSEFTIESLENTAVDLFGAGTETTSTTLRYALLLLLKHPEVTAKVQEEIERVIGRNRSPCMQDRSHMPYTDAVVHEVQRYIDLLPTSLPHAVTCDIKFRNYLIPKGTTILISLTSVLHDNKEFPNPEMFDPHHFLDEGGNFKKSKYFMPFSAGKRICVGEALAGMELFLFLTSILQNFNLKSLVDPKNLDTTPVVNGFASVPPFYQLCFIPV
From the text: as §1

[9] = target: CYP2C19 (Homo sapiens (Human), UniProt P33261); test: Cytochrome P450 activity inhibition, CYP2C19; assay type: in vitro ADME; conditions: 10 μM, human liver microsomes, S-mephenytoin substrate
CYP2C19, sequence (P33261 whole entry): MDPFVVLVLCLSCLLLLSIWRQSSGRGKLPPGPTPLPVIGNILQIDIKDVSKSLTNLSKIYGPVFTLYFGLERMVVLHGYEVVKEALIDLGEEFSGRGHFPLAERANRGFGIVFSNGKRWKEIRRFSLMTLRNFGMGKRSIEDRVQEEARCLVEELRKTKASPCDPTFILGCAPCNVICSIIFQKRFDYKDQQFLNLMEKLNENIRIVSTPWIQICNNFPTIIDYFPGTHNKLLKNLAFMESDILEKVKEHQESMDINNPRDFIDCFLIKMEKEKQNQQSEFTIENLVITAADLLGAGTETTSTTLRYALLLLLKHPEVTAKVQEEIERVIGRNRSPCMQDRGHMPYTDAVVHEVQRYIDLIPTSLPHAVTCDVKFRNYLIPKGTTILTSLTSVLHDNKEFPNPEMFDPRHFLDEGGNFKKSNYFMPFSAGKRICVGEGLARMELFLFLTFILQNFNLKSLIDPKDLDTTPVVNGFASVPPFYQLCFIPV
From the text: as §1

[10] = target: CYP2D6 (Homo sapiens (Human), UniProt P10635); test: Cytochrome P450 activity inhibition, CYP2D6; assay type: in vitro ADME; conditions: 10 μM, human liver microsomes, Dextromethorphan substrate
CYP2D6, sequence (P10635 whole entry): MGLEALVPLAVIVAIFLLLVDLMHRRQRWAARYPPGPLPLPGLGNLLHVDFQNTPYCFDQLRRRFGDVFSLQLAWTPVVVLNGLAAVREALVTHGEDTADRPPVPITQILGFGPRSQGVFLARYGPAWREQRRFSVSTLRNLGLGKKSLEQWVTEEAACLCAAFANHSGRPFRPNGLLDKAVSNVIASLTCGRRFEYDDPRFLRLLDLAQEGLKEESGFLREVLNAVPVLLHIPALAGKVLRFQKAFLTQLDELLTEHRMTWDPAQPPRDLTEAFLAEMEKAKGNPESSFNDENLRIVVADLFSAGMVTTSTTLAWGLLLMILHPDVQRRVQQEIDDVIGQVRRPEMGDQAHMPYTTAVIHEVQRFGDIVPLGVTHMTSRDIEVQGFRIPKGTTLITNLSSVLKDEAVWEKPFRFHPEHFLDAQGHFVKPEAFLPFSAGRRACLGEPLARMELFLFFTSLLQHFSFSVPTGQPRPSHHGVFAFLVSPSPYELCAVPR
From the text: as §1

[11] = target: CYP3A4 (Homo sapiens (Human), UniProt P08684); test: Cytochrome P450 activity inhibition, CYP3A4; assay type: in vitro ADME; conditions: 10 μM, human liver microsomes, Midazolam substrate
CYP3A4, sequence (P08684 whole entry): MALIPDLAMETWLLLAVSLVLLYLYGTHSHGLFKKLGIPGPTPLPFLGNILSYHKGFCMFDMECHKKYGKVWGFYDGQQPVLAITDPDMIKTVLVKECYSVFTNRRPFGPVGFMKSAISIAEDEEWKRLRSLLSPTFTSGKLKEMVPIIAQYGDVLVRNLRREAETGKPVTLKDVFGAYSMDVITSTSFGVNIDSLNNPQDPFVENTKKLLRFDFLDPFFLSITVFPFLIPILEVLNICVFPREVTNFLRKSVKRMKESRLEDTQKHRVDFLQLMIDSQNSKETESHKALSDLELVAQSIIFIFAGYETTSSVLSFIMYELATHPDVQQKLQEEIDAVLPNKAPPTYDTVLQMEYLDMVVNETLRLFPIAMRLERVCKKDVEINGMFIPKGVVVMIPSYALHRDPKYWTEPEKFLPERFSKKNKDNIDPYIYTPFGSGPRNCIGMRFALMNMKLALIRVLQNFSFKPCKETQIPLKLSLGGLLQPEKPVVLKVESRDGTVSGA
From the text: as §1

[12] = 1 μM, 30 minutes, 37° C., NADPH
[13] = 1 μM, 30 minutes, 37° C., NADPH; remark: listed apart in the source
[14] = 1 μM, 30 minutes, 37° C., NADPH; remark: listed apart in the source
Method: 2) Microsomal Stability Evaluation
(§3) Four liver microsomes (Human, Dog, Rat, Mouse 0.5 mg/ml) with a 0.1 M phosphate buffer solution (pH 7.4), and the arylethene derivative of the present invention were added to a concentration of 1 μM, culturing was performed at 37° C. for 5 minutes in advance, a NADPH regeneration system solution was added thereto, and culturing was performed at 37° C. for 30 minutes. Thereafter, in order to complete the reaction, an acetonitrile solution containing an internal standard material (chlorpropamide) was added thereto, centrifugation (14,000 rpm, 4° C.) was performed for 5 minutes, and a supernatant was injected into a LC-MS/MS system to analyze the substrate drug, thereby evaluating metabolism stability to the arylethene derivative of the present invention.

[15] = 1 μM, 30 minutes, 37° C., NADPH; remark: listed apart in the source
Method: 2) Microsomal Stability Evaluation
as §3

[16] = target: GST-bound ERR gamma ligand-binding domain (LBD) (Homo sapiens (Human), UniProt P62508); test: ERRγ binding assay (inverse agonist assay), TR-FRET; conditions: TR-FRET, PGC1a coactivator; read-out: Binding Assay, IC50 ERRγ
GST-bound ERR gamma ligand-binding domain (LBD), sequence (P62508 233-457): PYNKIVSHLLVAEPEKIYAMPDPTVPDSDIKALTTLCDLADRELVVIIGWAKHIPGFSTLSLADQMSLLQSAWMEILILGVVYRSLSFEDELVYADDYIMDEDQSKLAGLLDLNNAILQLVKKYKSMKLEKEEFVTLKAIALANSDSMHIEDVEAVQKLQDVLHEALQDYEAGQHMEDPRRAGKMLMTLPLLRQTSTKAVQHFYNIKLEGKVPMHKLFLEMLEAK
Method: 1) ERRγ Binding Assay (Inverse Agonist Assay)
as §2

[17] = target: hERG channel (Homo sapiens (Human), UniProt Q12809); test: biochemical
[18] = in vitro; assay type: in vitro ADME; design: Papp at 5 h: dose or concentration left out as unconfirmed; conditions: PAMPA, PBS pH 7.4, 25° C., read-out: Permeability Pampa
[19] = activity relative to reference compound GSK5182, 10 μM

GST-bound ERR alpha LBD, sequence (P11474 193-421): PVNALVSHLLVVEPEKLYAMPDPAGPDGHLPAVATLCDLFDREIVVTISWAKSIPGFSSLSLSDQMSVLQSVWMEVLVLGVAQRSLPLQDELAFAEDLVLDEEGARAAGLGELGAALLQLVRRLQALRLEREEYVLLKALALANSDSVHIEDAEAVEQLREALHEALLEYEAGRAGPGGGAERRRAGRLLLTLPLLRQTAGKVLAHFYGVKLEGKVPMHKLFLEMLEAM

Row | Compound | inhibition of radioactive iodine uptake increase by compound 18a [1] | inhibition of relative increase of phosphorylated ERK1 and ERK2 by compound 18a [2] | IC50 [3] [µM] | IC50 [4] [µM] | IC50 [5] [µM] | Functional Assay at 10 μM (% of control), Cpds [6] | Functional Assay, Cpds/Ref 5182 [6, 19] | CYP inhibition (% of control) 1A2 [7] | CYP inhibition (% of control) 2C9 [8] | CYP inhibition (% of control) 2C19 [9] | CYP inhibition (% of control) 2D6 [10] | CYP inhibition (% of control) 3A4 [11] | MS(Microsomal Stability) (%) human [12] [%] | MS(Microsomal Stability) (%) dog [13] [%] | MS(Microsomal Stability) (%) rat [14] [%] | MS(Microsomal Stability) (%) mouse [15] [%] | IC50 [16] [µM] | IC50 [17] [µM] | Papp at 5 h [18] [×10⁻⁶ cm/s] | Functional Assay, Cpds/Ref 5182 [6]
1 | COc1cccc(-c2cc(=O)c3ccccc3o2)c1N [PD98059] | completely inhibited | completely inhibited |  |  |  |  |  |  |  |  |  |  |  |  |  |  |  |  |  | 
2 | OCCC/C(=C(\c1ccc(O)cc1)c1ccc(N2CCNCC2)cc1)c1ccccc1 [Compound 20j] |  |  | > 10 | 4.93 | 0.992 | 1.41 % of control | 1.38 | 93.6 % of control | 77.1 % of control | 62 % of control | 89.3 % of control | 66.2 % of control | 76.8 | 68.3 | 84.5 | 25.3 |  |  |  | 
3 | OCCC/C(=C(\c1ccc(O)cc1)c1ccc(OCCN2CC3CC3C2)cc1)c1ccccc1 (stereo not shown) [Compound 38a, (Z)-4-(1-(4-(2-(3-azabicyclo[3.1.0]hexan-3-yl)ethoxy)phenyl)-5-hydroxy-2-phenylpent-1-en-1-yl)phenol] |  |  | > 10 | 8.13 | 0.437 | 1.45 % of control | 1.42 |  |  |  |  |  |  |  |  |  | 0.079 | 16.1 |  | 
4 | Nc1ccc(/C(=C(\CCCO)c2ccccc2)c2ccc(C3CCN(C4CC4)CC3)cc2)cc1 [Compound 26d] |  |  |  |  |  |  |  | >100 % of control | 96.6 % of control | >100 % of control | 86.1 % of control | 57.3 % of control | 77.5 | 51.5 | 72.2 | 38.3 |  | 26 | 1.04 | 
5 | OCCC/C(=C(\c1ccc(O)cc1)c1ccc(OCCN2C[C@H]3C[C@H]3[C@H]2CO)cc1)c1ccccc1 [Compound 38d] |  |  |  | 8.8 | 0.276 | 3.16 % of control | 0.77 | 79.2 % of control | 55.3 % of control | 58.8 % of control | 54.3 % of control | 57.6 % of control | 6.9 |  | 11.7 | 11.8 | 0.083 |  |  | 
6 | OCCC/C(=C(\c1ccc(O)cc1)c1ccc(OCCN2CCC[C@@H]2CO)cc1)c1ccccc1 [Compound 38c] |  |  | > 10 | > 10 | 0.408 | 4.06 % of control |  | 79.2 % of control | 55.3 % of control | 58.8 % of control | 54.3 % of control | 61.5 % of control |  |  |  |  | 0.091 |  |  | 0.99
7 | OCCC/C(=C(\c1ccc(O)cc1)c1ccc(OCCN2CC2)cc1)c1ccccc1 [Compound 6f] |  |  | > 10 |  | 0.296 | 6.75 % of control | 2.19 |  |  |  |  |  |  |  |  |  | 0.059 | > 30 |  | 
